Reference: patent US20130259884A1, “PEPTIDES” ([…] SL, priority 2010, published 2013)
Where a SMILES comes first, the peptide text is derived from it.

Assay: Water solubility of peptides when preparing stock solutions
Assay type: physicochemical
Conditions: stock solution in sterile distilled water or 100% DMSO; read-out: solubility of peptide (water soluble or water insoluble, dissolved in DMSO)
Description: For challenge, peptides were administered as follows: • Individual peptides (soluble). Individual water soluble peptides were dissolved as 10, 5 or 2.5 mg/ml stock solutions in sterile distilled water. Before use, each peptide was diluted in water to 2 mg/ml and 10 μl of this 2 mg/ml mix was added to 990 μl of media. Then 100 μl of this peptide/media mix was added to 100 μl of media containing 350,000 PBMC in an ELISPOT anti-IL-4 coated cell culture plate well for a final peptide concentration of 10 μg/ml. Identically diluted media only was added to the cells and used for the no peptide media control wells (media only). • Individual peptides (DMSO). Individual water insoluble peptides were dissolved in 100% DMSO to a stock concentration of 50 mg/ml. Before use each peptide was diluted in water to 2 mg/ml and then 10 μl of the 2 mg/ml mix was added to 990 μl of cell-culture media. Then 100 μl of this peptide/media mix was added to 100 μl of media containing 350,000 PBMC in an ELISPOT anti-IL-4 coated cell culture plate well for a final peptide concentration of 10 μg/ml. Identically diluted media only was added to the cells and used for the no peptide media control wells (media only). • A combination preparation containing Alt a 1 soluble peptides (33.2, 34.3, 35.4, 35.5, 37.3.1, 37.4.1, L6-5.01, L10-1.01, L10-2.01, L10-3), called Alt a 1 Sol. Each peptide was diluted from water stock to 2 mg/ml in sterile distilled water. Then 10 μl of each peptide required for the combined preparation was mixed and brought up to 1 ml in media. Then 100 μl of this peptide/media mix was added to 100 μl of media containing 350,000 PBMC in an ELISPOT anti-IL-4 coated cell culture plate well for a final concentration of each peptide of 10 μg/ml. Identically diluted media only was used for the no peptide control wells (media only). • A combination preparation containing Alt a 1 DMSO peptides (32.2.1, 38.2.1, 35.2, 35.3, L6-2, L6-3, L6-4, 38.3, 37.2), called Alt a 1 DMSO. Each peptide was diluted from DMSO stock to 2 mg/ml in sterile distilled water. Then 10 μl of each peptide required for the combined preparation was mixed and brought up to 1 ml in media. Then 100 μl of this peptide/media mix is added to 100 μl of media containing 350,000 PBMC in an ELISPOT anti-IL-4 coated cell culture plate well for a final concentration of each peptide of 10 μg/ml. Identically diluted media only was used for the no peptide control wells (media only). • A combination preparation containing non-Alt a 1 soluble peptides (40.2, 41.2, 43.2, 44.2, 46.2, 47.2.1, 56.2, 57.2.1, 60.2, 62.2.1, 67.2, 71.3), called Alt a Other Sol. Each peptide was diluted from water stock to 2 mg/ml in sterile distilled water. Then 10 μl of each peptide required for the combined preparation was mixed and brought up to 1 ml in media, Then 100 μl of this peptide/media mix was added to 100 μl of media containing 350,000 PBMC in an ELISPOT anti-IL-4 coated cell culture plate well for a final concentration of each peptide at 10 μg/ml. Identically diluted media only was used for the no peptide control wells (media only). • A combination preparation containing non-Alt a 1 DMSO peptides (39.2, 42.2, 45.2, 48.2.1, 50.2, 51.2.1, 61.2.1, 66.3.1, 68.2.1, 70.2, 71.2, 72.2), called Alt a Other DMSO. Each peptide was diluted from DMSO stock to 2 mg/ml in sterile distilled water. Then 10 ul of each peptide required for the combined preparation was mixed and brought up to 1 ml in media, Then 100 μl of this peptide/media mix was added to 100 μl of media containing 350,000 PBMC in an ELISPOT anti-IL-4 coated cell culture plate well for a final concentration of each peptide at 10 μg/ml. Identically diluted media only was used for the no peptide control wells (media only).

SMILES: CC(C)C[C@H](NC(=O)[C@H](C)NC(=O)[C@@H](NC(=O)[C@H](CCC(N)=O)NC(=O)[C@H](CC(N)=O)NC(=O)[C@@H](N)CCCCN)C(C)C)C(=O)N[C@@H](CC(N)=O)C(=O)N1CCC[C@H]1C(=O)N[C@H](C(=O)N[C@@H](CC(N)=O)C(=O)N[C@H](C(=O)N[C@H](C(=O)N[C@@H](Cc1ccccc1)C(=O)N[C@@H](CC(=O)O)C(=O)N[C@@H](C)C(=O)O)C(C)C)[C@@H](C)O)C(C)C [Peptide 51.2.1, KNQVALNPVNTVFDA] (H-KNQVALNPVNTVFDA-OH)
- solubility: < 2500 µg/mL

SMILES: CC(C)C[C@H](NC(=O)[C@@H](NC(=O)[C@H](C)NC(=O)[C@@H](N)[C@@H](C)O)[C@@H](C)O)C(=O)N1CCC[C@H]1C(=O)N[C@@H](CC(N)=O)C(=O)N[C@@H](Cc1ccc(O)cc1)C(=O)N[C@H](C(=O)N[C@@H](CCCNC(=N)N)C(=O)N[C@@H](C)C(=O)NCC(=O)NCC(=O)N[C@@H](CC(N)=O)C(=O)NCC(=O)N1CCC[C@H]1C(=O)O)C(C)C [Peptide 37.4.1, TATLPNYVRAGGNGP] (H-TATLPNYVRAGGNGP-OH)
- solubility: > 2500 µg/mL

SMILES: CC(C)[C@H](NC(=O)[C@H](Cc1ccc(O)cc1)NC(=O)[C@H](CO)NC(=O)[C@H](CO)NC(=O)[C@H](C)NC(=O)[C@H](CC(=O)O)NC(=O)[C@H](CO)NC(=O)[C@H](C)NC(=O)[C@H](Cc1ccccc1)NC(=O)[C@H](Cc1ccc(O)cc1)NC(=O)[C@@H](NC(=O)[C@H](Cc1ccc(O)cc1)NC(=O)[C@H](C)NC(=O)CNC(=O)[C@@H](N)CCCCN)C(C)C)C(=O)O [Peptide 68.2.1, KGAYVYFASDASSYV] (H-KGAYVYFASDASSYV-OH)
- solubility: < 2500 µg/mL

SMILES: CC(C)C[C@H](NC(=O)[C@@H]1CCCN1C(=O)[C@H](C)NC(=O)[C@H](C)NC(=O)[C@H](C)NC(=O)[C@H](C)NC(=O)[C@H](CC(C)C)NC(=O)CNC(=O)[C@H](C)NC(=O)[C@H](C)NC(=O)[C@H](C)NC(=O)[C@H](Cc1ccccc1)NC(=O)[C@H](CC(C)C)NC(=O)[C@H](CO)NC(=O)[C@H](C)N)C(=O)O [Peptide L6-3, ASLFAAAGLAAAAPL] (H-ASLFAAAGLAAAAPL-OH)
- solubility: < 2500 µg/mL

SMILES: CC[C@H](C)[C@H](NC(=O)[C@H](CC(=O)O)NC(=O)[C@H](CC(=O)O)NC(=O)[C@@H](N)CO)C(=O)N[C@H](C(=O)N[C@@H](Cc1ccc(O)cc1)C(=O)N[C@H](C(=O)N[C@@H](C)C(=O)N[C@H](C(=O)N[C@@H](C)C(=O)N[C@H](C(=O)N[C@@H](CC(C)C)C(=O)N1CCC[C@H]1C(=O)N[C@@H](CC(N)=O)C(=O)N[C@@H](Cc1ccc(O)cc1)C(=O)O)[C@@H](C)O)[C@@H](C)O)C(C)C)[C@@H](C)O [Peptide 37.2, SDDITYVATATLPNY] (H-SDDITYVATATLPNY-OH)
- solubility: < 2500 µg/mL

SMILES: CC(C)C[C@H](NC(=O)CNC(=O)[C@H](C)NC(=O)[C@H](C)N)C(=O)N[C@@H](C)C(=O)N[C@@H](C)C(=O)N[C@@H](C)C(=O)N[C@@H](C)C(=O)N1CCC[C@H]1C(=O)N[C@@H](CC(C)C)C(=O)N[C@@H](CCC(=O)O)C(=O)N[C@@H](CO)C(=O)N[C@@H](CCCNC(=N)N)C(=O)N[C@@H](CCC(N)=O)C(=O)N[C@@H](CC(=O)O)C(=O)O [Peptide 33.2, AAGLAAAAPLESRQD] (H-AAGLAAAAPLESRQD-OH)
- solubility: > 2500 µg/mL

SMILES: CC(C)C[C@H](NC(=O)[C@@H](NC(=O)CNC(=O)[C@@H](NC(=O)[C@H](CO)NC(=O)[C@@H](NC(=O)[C@H](Cc1ccccc1)NC(=O)[C@@H](NC(=O)CNC(=O)[C@H](C)N)C(C)C)C(C)C)[C@@H](C)O)[C@@H](C)O)C(=O)NCC(=O)NCC(=O)NCC(=O)N[C@@H](CCC(N)=O)C(=O)N[C@@H](CCC(=O)O)C(=O)O [Peptide 45.2, AGVFVSTGTLGGGQE] (H-AGVFVSTGTLGGGQE-OH)
- solubility: < 2500 µg/mL

SMILES: CC[C@H](C)[C@H](NC(=O)CNC(=O)[C@@H](N)C(C)C)C(=O)N[C@@H](Cc1ccccc1)C(=O)N[C@@H](CCCNC(=N)N)C(=O)N[C@@H](CC(=O)O)C(=O)N[C@@H](CC(=O)O)C(=O)N[C@@H](CCCNC(=N)N)C(=O)N[C@H](C(=O)N[C@@H](CCC(=O)O)C(=O)N[C@H](C(=O)N[C@H](C(=O)N[C@@H](C)C(=O)N[C@@H](CC(N)=O)C(=O)N[C@@H](CC(=O)O)C(=O)O)[C@@H](C)CC)[C@@H](C)CC)[C@@H](C)CC [Peptide 50.2, VGIFRDDRIEIIAND] (H-VGIFRDDRIEIIAND-OH; N-terminus and C-terminus assumed)
- solubility: < 2500 µg/mL

SMILES: CC[C@H](C)[C@H](NC(=O)[C@H](CC(=O)O)NC(=O)[C@H](CC(=O)O)NC(=O)[C@H](CO)NC(=O)[C@@H](NC(=O)[C@H](CCCCN)NC(=O)[C@H](CCC(N)=O)NC(=O)[C@@H](N)CCCCN)C(C)C)C(=O)N[C@H](C(=O)N[C@@H](Cc1ccc(O)cc1)C(=O)N[C@H](C(=O)N[C@@H](C)C(=O)N[C@H](C(=O)N[C@@H](C)C(=O)N[C@H](C(=O)O)[C@@H](C)O)[C@@H](C)O)C(C)C)[C@@H](C)O [Peptide L10-3, KQKVSDDITYVATAT] (H-KQKVSDDITYVATAT-OH)
- solubility: > 2500 µg/mL

SMILES: CC(C)C[C@H](NC(=O)[C@H](CC(N)=O)NC(=O)[C@H](C)NC(=O)[C@H](CC(C)C)NC(=O)[C@H](CC(C)C)NC(=O)[C@H](CO)NC(=O)[C@H](Cc1ccccc1)NC(=O)[C@H](C)NC(=O)[C@@H](NC(=O)[C@H](CCCCN)NC(=O)[C@H](Cc1ccc(O)cc1)NC(=O)CNC(=O)[C@H](CC(C)C)NC(=O)[C@@H]1CCCN1C(=O)[C@@H](N)C(C)C)[C@@H](C)O)C(=O)O [Peptide 66.3.1, VPLGYKTAFSLLANL] (H-VPLGYKTAFSLLANL-OH)
- solubility: < 2500 µg/mL

SMILES: CC[C@H](C)[C@H](NC(=O)[C@H](Cc1c[nH]cn1)NC(=O)CNC(=O)[C@H](CO)NC(=O)[C@H](CC(C)C)NC(=O)[C@H](CO)NC(=O)[C@H](CO)NC(=O)[C@@H](NC(=O)[C@@H](NC(=O)[C@@H](NC(=O)[C@H](CC(C)C)NC(=O)[C@H](CO)NC(=O)CNC(=O)[C@@H](N)[C@@H](C)O)C(C)C)[C@@H](C)CC)[C@@H](C)O)C(=O)N[C@@H](C)C(=O)O [Peptide 47.2.1, TGSLVITSSLSGHIA] (H-TGSLVITSSLSGHIA-OH)
- solubility: > 2500 µg/mL

SMILES: CC[C@H](C)[C@H](N)C(=O)N[C@@H](C)C(=O)N[C@@H](CO)C(=O)N[C@@H](CC(C)C)C(=O)N[C@@H](Cc1ccccc1)C(=O)N[C@@H](C)C(=O)N[C@@H](C)C(=O)N[C@@H](C)C(=O)NCC(=O)N[C@@H](CC(C)C)C(=O)N[C@@H](C)C(=O)N[C@@H](C)C(=O)N[C@@H](C)C(=O)N[C@@H](C)C(=O)N1CCC[C@H]1C(=O)O [Peptide L6-2, IASLFAAAGLAAAAP]
- solubility: < 2500 µg/mL

SMILES: CC[C@H](C)[C@H](NC(=O)[C@H](CCCCN)NC(=O)[C@H](Cc1c[nH]c2ccccc12)NC(=O)[C@@H](NC(=O)[C@H](Cc1ccc(O)cc1)NC(=O)[C@@H](N)CC(=O)O)C(C)C)C(=O)N[C@@H](CO)C(=O)N[C@@H](CCC(=O)O)C(=O)N[C@@H](Cc1ccccc1)C(=O)N[C@@H](Cc1ccc(O)cc1)C(=O)NCC(=O)N[C@@H](CCCNC(=N)N)C(=O)N[C@@H](CCCCN)C(=O)N1CCC[C@H]1C(=O)N[C@@H](CCC(=O)O)C(=O)O [Peptide 34.3, DYVWKISEFYGRKPE] (H-DYVWKISEFYGRKPE-OH)
- solubility: > 2500 µg/mL

SMILES: CC(C)C[C@H](NC(=O)CNC(=O)[C@H](CC(C)C)NC(=O)[C@H](CC(C)C)NC(=O)[C@H](CC(C)C)NC(=O)[C@H](Cc1ccc(O)cc1)NC(=O)[C@H](C)NC(=O)[C@H](C)NC(=O)[C@H](CC(C)C)NC(=O)[C@H](Cc1c[nH]cn1)NC(=O)[C@H](CCCCN)NC(=O)[C@@H](N)CC(C)C)C(=O)NCC(=O)NCC(=O)N[C@@H](CC(N)=O)C(=O)O [Peptide 57.2.1, LKHLAAYLLLGLGGN] (H-LKHLAAYLLLGLGGN-OH)
- solubility: > 2500 µg/mL
